Measurements as given in patent US5750696A, “Dioxacycloalkane compound having renin-inhibitory activity” (Japan Tobacco Inc., priority 1992, dated 1998).

Columns and labels:
[1] = system: non-anesthetized marmosets; assay: Hypotensive action on non-anesthetized marmosets under salt intake control; format: in vivo; settings: 10 mg/kg, po, low salt diet, tail-cuff method, relative to value before administration
From the text: (§1) In the following, the test results of the inhibitory action of the dioxacycloalkane compound of the above-mentioned formula [1] of the present invention, on the renin activity in human plasma and the hypotensive action on nonanesthetized marmosets under salt intake control are shown.
Hypotensive action on non-anesthetized marmosets under salt intake control
Non-anesthetized marmosets (weighing 310-370 g) raised on a low salt diet (containing 0.02% salt, 1/10 of the normal diet) for a week were orally administered with the compound (10 mg/kg) of Example 1 dissolved in 0.1 M citric acid, at the ratio of 2 ml/kg. The blood pressure was measured with the lapse of time before and after the administration by the tail-cuff method, and the hypotensive action was calculated in percentage relative to the value measured before the administration.

[2] = target: T1, renin activity in human plasma (Homo sapiens, UniProt P00797); assay: Inhibitory action on renin activity in human plasma; format: biochemical; settings: 37° C., 1 hour, angiotensin I by radio immunoassay
T1 construct: Human plasma (200 μl); from tissue; host or cells: human plasma
T1 sequence (P00797 67-406): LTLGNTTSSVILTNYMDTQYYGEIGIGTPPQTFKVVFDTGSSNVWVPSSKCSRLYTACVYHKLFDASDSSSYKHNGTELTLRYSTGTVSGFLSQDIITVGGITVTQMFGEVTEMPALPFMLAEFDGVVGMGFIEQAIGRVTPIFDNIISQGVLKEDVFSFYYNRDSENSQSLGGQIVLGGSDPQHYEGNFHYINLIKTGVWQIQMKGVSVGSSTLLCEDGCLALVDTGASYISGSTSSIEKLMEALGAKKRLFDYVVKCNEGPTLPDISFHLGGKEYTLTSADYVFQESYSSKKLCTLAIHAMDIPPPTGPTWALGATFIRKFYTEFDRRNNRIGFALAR
Description: as §1
Inhibitory action on renin activity in human plasma
Human plasma (200 μl), a pH adjusting solution (20 μl), PMSF (10 μl), and a solution (10 μl) of the dioxacycloalkane compound of the present invention in dimethyl sulfoxide or dimethyl sulfoxide (10 μl ) as a control were placed in plastic tubes for RIA. Two sets of these were prepared and one set of them was incubated at 37° C. for 1 hour and the other was incubated at 4° C. for 1 hour.
After incubation, the amount of angiotensin I was quantitatively assayed by the radio immunoassay method. The renin activity in plasma was calculated by subtracting the amount of angiotensin I in the reaction mixture incubated at 4° C. from that in the reaction mixture incubated at 37° C. Percent inhibitory activity was calculated from the following formula [formula] The molar concentration necessary for 50% inhibition of activity (IC5 0) was determined from the inhibitory activity value obtained by the above calculating formula. [RENIN RIABEADS KIT (Dinabot Ltd.) was used for the measurement.]

## CN(C(=O)[C@H](Cc1ccccc1)NC(=O)N1CCCCC1)[C@@H](Cc1c[nH]cn1)C(=O)N[C@@H](CC1CCCCC1)[C@@H](O)C[C@@H]1OCOC1(C)C [Example 1, (4S)-4-[(2S,3S)-4-cyclohexyl-2-hydroxy-3-[[Nα-methyl-N α-(N-piperidinocarbonyl-L-phenylalanyl)-L-histidyl]amino]butyl]-5,5-dimethyl-1,3-dioxolane]
[1]; 0.5 hr later
  Hypotensive action (%) 0.5 hr later: 10%
[1]; 1 hr later
  Hypotensive action (%) 1 hr later: 12%
[1]; 3 hrs later
  Hypotensive action (%) 3 hrs later: 10%
[1]; 5 hrs later
  Hypotensive action (%) 5 hrs later: 10%
[1]; 7 hrs later
  Hypotensive action (%) 7 hrs later: 3%
[2]
  IC50: 0.9 nM

## CN(C(=O)[C@H](Cc1ccccc1)NC(=O)N1CCCCC1)[C@@H](Cc1c[nH]cn1)C(=O)N[C@@H](CC1CCCCC1)[C@@H](O)C[C@H]1OCOC1(C)C [Example 2, (4R)-4-[(2S,3S)-4-cyclohexyl-2-hydroxy-3-[[Nα-methyl-N α-(N-piperidinocarbonyl-L-phenylalanyl)-L-histidyl]amino]butyl]-5,5-dimethyl-1,3-dioxolane]
[2]
  IC50: 21 nM

## CC1(C)OCO[C@H]1C[C@H](O)[C@H](CC1CCCCC1)NC(=O)[C@H](Cc1c[nH]cn1)NC(=O)[C@H](Cc1ccccc1)OC(=O)N1CCCCC1 [Example 3, (4S)-4-[(2S,3S)-4-cyclohexyl-2-hydroxy-3-[[Nα-[(2S)-3-phenyl-2-piperidinocarbonyloxypropionyl]-L-histidyl]amino]butyl]-5,5-dimethyl-1,3-dioxolane]
[2]
  IC50: 7 nM

## CC1(C)OCO[C@H]1C[C@H](O)[C@H](CC1CCCCC1)NC(=O)[C@H](Cc1c[nH]cn1)NC(=O)[C@H](Cc1ccccc1)NC(=O)N1CCCCC1 [Example 4, (4S)-4-[(2S,3S)-4-cyclohexyl-2-hydroxy-3-[[N α-(N-piperidino-carbonyl-L-phenylalanyl)-L-histidyl]amino]butyl]-5,5-dimethyl-1,3-dioxolane]
[2]
  IC50: 1.8 nM

## CSC[C@H](NC(=O)[C@H](Cc1ccccc1)OC(=O)N1CCN(C)CC1)C(=O)N[C@@H](CC1CCCCC1)[C@@H](O)C[C@@H]1OCOC1(C)C [Example 5, (4S)-4-[(2S,3S)-4-cyclohexyl-2-hydroxy-3-[[S-methyl-N-[(2S)-3-phenyl-2-(4-methylpiperazinyl)carbonyloxypropionyl]-L-cysteinyl]amino]butyl]-5,5-dimethyl-1,3-dioxolane]
[2]
  IC50: 14 nM

## CN(C(=O)[C@H](Cc1ccccc1)NS(=O)(=O)N1CCCCC1)[C@@H](Cc1c[nH]cn1)C(=O)N[C@@H](CC1CCCCC1)[C@@H](O)C[C@@H]1OCOC1(C)C [Example 6, (4S)-4-[(2S,3S)-4-cyclohexyl-2-hydroxy-3-[[Nα-methyl-N α-(N-piperidinosulfonyl-L-phenylalanyl)-L-histidyl]amino]butyl]-5,5-dimethyl-1,3-dioxolane]
[2]
  IC50: 11 nM

## CC1CCN(C(=O)N[C@@H](Cc2ccccc2)C(=O)N(C)[C@@H](Cc2c[nH]cn2)C(=O)N[C@@H](CC2CCCCC2)[C@@H](O)C[C@@H]2OCOC2(C)C)CC1 [Example 9, (4S)-4-[(2S,3S)-4-cyclohexyl-2-hydroxy-3-[[Nα-methyl-N α-[N-(4-methylpiperidino)carbonyl-L-phenylalanyl]-L-histidyl]-amino]butyl]-5,5-dimethyl-1,3-dioxolane]
[2]
  IC50: 3 nM

## CCN(CC)C(=O)N[C@@H](Cc1ccccc1)C(=O)N(C)[C@@H](Cc1c[nH]cn1)C(=O)N[C@@H](CC1CCCCC1)[C@@H](O)C[C@@H]1OCOC1(C)C [Example 10, (4S)-4-[(2S,3S)-4-cyclohexyl-2-hydroxy-3-[[Nα-methyl-N α-[N-(diethylamino)carbonyl-L-phenylalanyl]-L-histidyl]amino]butyl]-5,5-dimethyl-1,3-dioxolane]
[2]
  IC50: 7.8 nM

## CN(C(=O)[C@H](Cc1ccccc1)NC(=O)N1CCCCC1)[C@@H](Cc1c[nH]cn1)C(=O)N[C@@H](CC1CCCCC1)[C@@H](O)C[C@@H]1OC(C)(C)OC1(C)C [Example 11, (4S)-4-[(2S,3S)-4-cyclohexyl-2-hydroxy-3-[[Nα-methyl-N α-(N-piperidinocarbonyl-L-phenylalanyl)-L-histidyl]amino]butyl]-2,2,5,5-tetramethyl-1,3-dioxolane]
[2]
  IC50: 13 nM

## CN(C(=O)[C@H](Cc1ccccc1)NC(=O)N1CCCCC1)[C@@H](Cc1c[nH]cn1)C(=O)N[C@@H](CC1CCCCC1)[C@@H](O)C[C@@H]1OC(c2ccccc2)OC1(C)C (stereo partly drawn) [Example 12, (4S)-4-[(2S,3S)-4-cyclohexyl-2-hydroxy-3-[[Nα-methyl-N α-(N-piperidinocarbonyl-L-phenylalanyl)-L-histidyl]amino]butyl]-5,5-dimethyl-2-phenyl-1,3-dioxolane]
[2]
  IC50: 4 nM
